Measured values published in ChEMBL document CHEMBL1133786, “Synthesis and dopaminergic properties of the two enantiomers of 3-(3,4-dimethylphenyl)-1-propylpiperidine, a potent and selective dopamine D4 receptor ligand” (Bioorg Med Chem Lett, 2001).

Columns and labels:
[1] = Binding affinity for dopamine D2-D3 like receptor labelled with [3H]YM-09151-2 in striatum; assay type: tissue-based, Bos taurus
[2] = Binding affinity for dopamine D4-like receptor labelled with [3H]YM-09151-2 in retina; assay type: tissue-based, Bos taurus
[3] = molecular target: D(1A) dopamine receptor (Bos taurus, UniProt Q95136); test: Binding affinity for dopamine D1-like receptor labelled with [3H]SCH-23390 in retina; assay type: tissue-based
Sequence of D(1A) dopamine receptor (Q95136 whole entry): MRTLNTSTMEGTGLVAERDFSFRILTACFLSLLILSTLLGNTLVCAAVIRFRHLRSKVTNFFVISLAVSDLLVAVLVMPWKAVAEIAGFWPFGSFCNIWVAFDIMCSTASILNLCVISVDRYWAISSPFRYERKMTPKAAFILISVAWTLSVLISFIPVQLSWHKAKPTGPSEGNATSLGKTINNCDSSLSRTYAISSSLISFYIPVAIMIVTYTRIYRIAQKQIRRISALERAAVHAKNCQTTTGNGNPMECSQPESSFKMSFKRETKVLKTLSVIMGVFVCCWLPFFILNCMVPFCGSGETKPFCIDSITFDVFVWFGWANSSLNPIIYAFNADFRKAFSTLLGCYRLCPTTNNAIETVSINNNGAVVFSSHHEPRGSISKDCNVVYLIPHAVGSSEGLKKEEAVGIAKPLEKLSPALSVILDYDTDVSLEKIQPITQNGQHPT

| Structure (SMILES) | Ki [1] [nM] | Ki [2] [nM] | Ki [3] [nM] |
| --- | --- | --- | --- |
| CCCN1CCCC(c2ccc(C)c(C)c2)C1 (centres undefined) | 11000 | 10 | > 100000 |
| NCCc1ccc(O)c(O)c1 [DOPAMINE] | 130 | 15 | – |
| CCCN1CCC[C@@H](c2ccc(C)c(C)c2)C1 | 5000 | 23 | > 100000 |
| CCCN1CCC[C@H](c2cccc(O)c2)C1 | 404 | 397 | – |
| CCCN1CCC[C@@H]2Cc3n[nH]cc3C[C@H]21 [QUINPIROLE] | 241 | 59 | – |
| CCCN1CCC[C@H](c2ccc(C)c(C)c2)C1 | > 100000 | 4 | > 100000 |
| Cc1cccc(C(=O)NCN2CCN(c3ccccc3C#N)CC2)c1 [PD-168,077] | 18300 | 25 | – |
| CCCN1CCC[C@@H](c2cccc(O)c2)C1 [PRECLAMOL] | 8 | 187 | – |
